# Like-named read-outs stand apart in the source and are kept apart here.
# Key:
# [1] = tested on: human bon marrow progenitor cells (CFU-GM); assay: Toxicity in human bone marrow progenitor cells in vitro, CFU-GM; assay type: cell-based
# Description: (§1) Compounds of formula (I) were tested fortoxicity in human bon marrow progenitor cells, in vitro, by the method of Dornsife, R. E. et at., 1991, Antimicrob. Agents Chemother., 35: 322-328. Three separate assays were performed using marrow from three different donors.
# [2] = tested on: Human cytomegalovirus (HCMV); assay: Anti-HCMV plaque reduction assay in monolayers of MRCS cells (human embryonic lung); assay type: cell-based; conditions: Human betaherpesvirus 5, 50% inhibitory concentration estimated from dose-response curve
# Description: Human cytomegalovirus (HCMV) is assayed in monolayers of MRCS cells (human embryonic lung) in multiwell trays. Activity of compounds is determined in the plaque reduction assay, in which a cell monolayer is infected with a suspension of HCMV. A range of concentrations of the compound to be tested (of known moiarity) is then incorporated into the carboxymethyl cellulose overlay. Plaque numbers of each concentration are expressed as percentage of the control and a dose-response curve is drawn. From this curve the 50% inhibitory concentration (IC50) is estimated.
# [3] = tested on: human bon marrow progenitor cells (BFU-E); assay: Toxicity in human bone marrow progenitor cells in vitro, BFU-E; assay type: cell-based; conditions: 50% inhibition of bone marrow progenitor cells; three assays, marrow from three donors
# Description: as §1
# [4] = tested on: hepatitis B viral replication; conditions: Proc. Natl. Acad. Sci. USA 1989, 86, 8541-8544; cited from earlier work
# [5] = tested on: herpes simplex virus type 1 (HSV-1); conditions: J. Med. Chem. 1987, 30, 746-749; Biochem. Pharmacol. 1990, 40, 1515-1522; especially the (+)-enantiomer; cited from earlier work
# [6] = 50% inhibition of bone marrow progenitor cells, three assays, marrow from three donors
melting point [°C],Compound,"Cell Toxicity I50 CFU-GM [1, 6] [µM]",IC50 [2] [µM],Cell Toxicity I50 BFU-E [3],inhibition of hepatitis B viral replication [4],Cell Toxicity I50 CFU-GM [1] [µM],activity against HSV-1 [5]
–,"Nc1nc(NCC2CC2)c2ncn([C@@H]3C[C@H](CO)[C@@H](O)C3)c2n1 (racemic) [Ex. 22, (±) (1S, 2R, 4R)-4-[2-Amino-6-(cyclopropylmethylamino)-9H-purin-9-yl]-2-(hydroxymethyl)-1-cyclopentanol]",34 ± 14,3.1,>>50 μM,–,–,–
181 to 182,"Nc1nc(OC2CCCC2)c2ncn([C@@H]3C[C@H](CO)[C@@H](O)C3)c2n1 (racemic) [Example 28, (±)-(1S, 2R, 4R)-4-(2-Amino-6-(cyclopentyloxy)-9H-purin-9-yl)-2-(hydroxymethyl)-1-cyclopentanol]",–,–,–,–,–,–
–,"Nc1nc2c(ncn2[C@@H]2C[C@H](CO)[C@@H](O)C2)c(=O)[nH]1 (relative stereo) [2′-CDG, (1R*, 3S*, 4R)-2-amino-1,9-dihydro-9-[3-hydroxy-4-hydroxymethyl)cyclopentyl]-6H-purine-6-one, reference compound]",–,–,4 ± 2 µM,inhibits hepatitis B viral replication,0.4 ± 0.3,active against herpes simplex virus type 1
> 250,Cl.Cl.Nc1nc(NC2CC2)c2ncn([C@H]3C[C@@H](CO)[C@H](O)C3)c2n1 (stereo in doubt),–,–,–,–,–,–
174 to 176,"Nc1nc(NC2CC2)c2ncn([C@@H]3C[C@H](CO)[C@@H](O)C3)c2n1 (stereo in doubt) [Ex. 23, (±)-(1S, 2R, 4R)-4-[2-Amino-6-(cyclopropylamino)-9H-purin-9-yl]-2-(hydroxymethyl)-1-cyclopentanol]",14 ± 1,2.8,55 ± 15 µM,–,–,–
